Test results: patent US20250326748A1, “COMPOUNDS AND METHODS FOR MODULATING SPLICING” (REMIX THERAPEUTICS INC., priority 2022, published 2025)
Structures can show the parent of a compound that is named as a salt. Where two headings read alike, the source gives them in different places.

Assays:
Assay type in all cases: cell-based, human
[1] = tested on: HiBiT-tagged MYB protein; assay: HiBiT protein abundance assay, MYB (K562 HiBiT knock-in); conditions: HiBiT knock-in cells, 24 hours
In short: (§1)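 Endogenously HiBiT-tagged K562 knock-in lines treated 24 h at 37 °C with 10-point 3-fold dilutions (top 10 μM final, DMSO ≤0.25%) in IMDM+1% FBS. Lytic Nano-Glo luminescence normalized to DMSO and unmodified K562 controls; four-parameter fit gives 50%-abundance concentration (IC50).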

[2] = tested on: HiBiT-tagged HTT protein; assay: HiBiT protein abundance assay, HTT (K562 HiBiT knock-in); conditions: HiBiT knock-in cells, 24 hours
In short: as §1

[3] = tested on: Target C; assay: HiBiT protein abundance assay, Target C (K562 HiBiT knock-in); conditions: HiBiT knock-in cells, 24 hours
In short: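 K562 HiBiT knock-in cells (10000/well) in IMDM + 1% FBS were treated for 24 h at 37° C. with a 10-point 3-fold dilution series (top 10 μM final), with DMSO ≤0.25%. Unmodified K562 served as baseline. HiBiT lytic luminescence was normalized to controls, and IC50 was interpolated at 50% from a four-parameter fit.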

[4] = tested on: Target C mRNA; assay: Splicing RT-qPCR panel, Target C canonical junction (CJ) mRNA; conditions: read-out: Target C CJ (decrease in CJ mRNA levels, IC50)
In short: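 A673 cells (DMEM, 10% FBS) or K562 cells (IMDM, 10% FBS) treated 24 h at 37 °C with an 11-point 3-fold dilution, top 10 uM, DMSO ≤0.25%. Canonical-junction mRNA quantified in lysates by RT-qPCR, normalised to GAPDH, GUSB or PPIA and to DMSO (2^−ΔΔCt), then converted to % response.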

Row | IC50 [1] [µM] | IC50 [2] [µM] | IC50 [3] [µM] | IC50 ([4]; Homo sapiens) [µM] | IC50 [4] [µM] | Structure (SMILES)
1 | 0.1 to 1 | 1 to 10 | 1 to 10 | 0.1 to 1 | – | Cc1c(O)c(-c2ccc3nc(N4CCC(N(C)C)CC4)cnc3n2)cc2cn(C)nc12 [Compound 198]
2 | < 0.1 | 1 to 10 | 1 to 10 | 1 to 10 | – | Cn1cc2cc(-c3ccc4cc(N5CC[C@@H](NC(C)(C)C)C5)cnc4n3)c(O)cc2n1 [Compound 199]
3 | 1 to 10 | > 10 | > 10 | < 0.1 | – | Cc1cn2cc(-c3cnc4nc(C5CCNCC5)ccc4c3)cc(C)c2n1 [Compound 201]
4 | < 0.1 | 0.1 to 1 | 0.1 to 1 | 0.1 to 1 | – | CN[C@@H]1CCN(c2cnc3nc(-c4cc(F)c5nc(C)cn5c4)ncc3c2)C1 [Compound 202, (3R)-1-(2-{8-fluoro-2-methylimidazo[1,2-a]pyridin-6-yl}pyrido[2,3-d]pyrimidin-6-yl)-N-methylpyrrolidin-3-amine]
5 | 0.1 to 1 | 0.1 to 1 | 1 to 10 | 1 to 10 | – | CC1CN(c2cnc3nc(-c4cc(F)c5nn(C)cc5c4)cc(Cl)c3c2)CCN1 (stereo not shown) [Compound 203, 4-chloro-2-(7-fluoro-2-methyl-2H-indazol-5-yl)-6-(3-methylpiperazin-1-yl)-1,8-naphthyridine 2,2,2-trifluoroacetate]
6 | 0.1 to 1 | 0.1 to 1 | 1 to 10 | > 10 | – | Cc1c(O)c(-c2cc(Cl)c3cc(N(C)C4CCNC4)cnc3n2)cc2cn(C)nc12 (stereo not shown) [Compound 204, 5-[4-chloro-6-(367pyrrolidine-3-ylamino)-1,8-naphthyridin-2-yl]-2,7-dimethylindazol-6-ol]
7 | < 0.1 | < 0.1 | 0.1 to 1 | 0.1 to 1 | – | C[C@@H]1CN(c2cnc3nc(-c4cc5cn(C)nc5c(F)c4O)ccc3c2)C[C@H](C)N1 [Compound 206]
8 | < 0.1 | < 0.1 | 0.1 to 1 | – | 0.1 to 1 | Cc1c(O)c(-c2cc(Cl)c3cc(N4C[C@@H](C)N[C@@H](C)C4)cnc3n2)cc2cn(C)nc12 [Compound 207, 5-{4-chloro-6-[(3R,5S)-3,5-dimethylpiperazin-1-yl]-1,8-naphthyridin-2-yl}-2,7-dimethylindazol-6-ol]
9 | < 0.1 | 0.1 to 1 | 1 to 10 | 1 to 10 | – | C[C@@H]1CN(c2cnc3nc(-c4cc5cn(C)nc5cc4O)cc(Cl)c3c2)C[C@H](C)N1 [Compound 208]
10 | 0.1 to 1 | 0.1 to 1 | 1 to 10 | 1 to 10 | – | Cn1cc2cc(-c3cc(Cl)c4cc(N5CCNC(C6CC6)C5)cnc4n3)cc(F)c2n1 (stereo not shown) [Compound 209, 4-chloro-6-(3-cyclopropylpiperazin-1-yl)-2-(7-fluoro-2-methylindazol-5-yl)-1,8-naphthyridine]
11 | 1 to 10 | 1 to 10 | 1 to 10 | > 10 | – | Cc1cn2nc(-c3ccc4cc(NC5CCNCC5)cnc4n3)cc(C)c2n1 [Compound 210, 7-{2,8-dimethylimidazo[1,2-b]pyridazin-6-yl}-N-(piperidin-4-yl)-1,8-naphthyridin-3-amine; trifluoroacetic acid]
12 | < 0.1 | < 0.1 | < 0.1 | 0.1 to 1 | – | CN[C@@H]1CCN(c2cnc3nc(-c4cc5cn(C)nc5c(C)c4O)nc(OC)c3c2)C1 [Compound 211, 5-{4-methoxy-6-[(3R)-3-(methylamino)pyrrolidin-1-yl]pyrido[2,3-d]pyrimidin-2-yl}-2,7-dimethylindazol-6-ol]
13 | < 0.1 | < 0.1 | 0.1 to 1 | 1 to 10 | – | CN[C@H]1CCN(c2cnc3nc(-c4cc5cn(C)nc5c(C)c4O)nc(OC)c3c2)C1 [Compound 212, 5-{4-methoxy-6-[(3S)-3-(methylamino)pyrrolidin-1-yl]pyrido[2,3-d]pyrimidin-2-yl}-2,7-dimethylindazol-6-ol]
14 | < 0.1 | 0.1 to 1 | 0.1 to 1 | 1 to 10 | – | CNC1CCN(c2cnc3nc(-c4cc5cn(C)nc5cc4O)cc(Cl)c3c2)C1 (stereo not shown) [Compound 213, 5-{4-chloro-6-[3-(methylamino)370pyrrolidine-1-yl]-1,8-naphthyridin-2-yl}-2-methylindazol-6-ol]
15 | 0.1 to 1 | 0.1 to 1 | 1 to 10 | 1 to 10 | – | Cc1c(O)c(-c2ncc3cc(N4C[C@@H](C)N[C@@H](C)C4)cnc3n2)cc2cn(C)nc12 [Compound 214]
16 | 0.1 to 1 | 1 to 10 | 1 to 10 | 1 to 10 | – | C[C@@H]1CN(c2cnc3nc(-c4cc(F)c5nn(C)cc5c4)cc(Cl)c3c2)C[C@H](C)N1 [Compound 215]
17 | 0.1 to 1 | 1 to 10 | 1 to 10 | > 10 | – | Cn1cc2cc(-c3cc(Cl)c4cc(N5CCN6CCCC6C5)cnc4n3)cc(F)c2n1 (stereo not shown) [Compound 216, 4-chloro-2-(7-fluoro-2-methylindazol-5-yl)-6-{hexahydro-1H-pyrrolo[1,2-a]pyrazin-2-yl}-1,8-naphthyridine trifluoroacetic acid]
18 | 1 to 10 | 1 to 10 | 1 to 10 | > 10 | – | Cc1c(O)c(-c2cc(-c3ccccn3)c3cc(N4C[C@@H](C)N[C@@H](C)C4)cnc3n2)cc2cn(C)nc12 [Compound 217, 5-{6-[(3R,5S)-3,5-dimethylpiperazin-1-yl]-4-(pyridin-2-yl)-1,8-naphthyridin-2-yl}-2,7-dimethylindazol-6-ol]
19 | < 0.1 | < 0.1 | 0.1 to 1 | 0.1 to 1 | – | COc1nc(-c2cc3cn(C)nc3c(F)c2O)nc2ncc(N3C[C@@H](C)N[C@@H](C)C3)cc12 [Compound 218]
20 | < 0.1 | < 0.1 | 0.1 to 1 | 0.1 to 1 | – | COc1nc(-c2cc3cn(C)nc3c(F)c2O)nc2ncc(N3CCC(N(C)C)CC3)cc12 [Compound 219, 5-{6-[4-(dimethylamino)piperidin-1-yl]-4-methoxypyrido[2,3-d]pyrimidin-2-yl}-7-fluoro-2-methylindazol-6-ol]
21 | < 0.1 | < 0.1 | 0.1 to 1 | 0.1 to 1 | – | CN(C)[C@@H]1CCN(c2cnc3nc(-c4cc5cn(C)nc5c(F)c4O)cc(Cl)c3c2)C1 [Compound 220]
22 | < 0.1 | < 0.1 | 0.1 to 1 | 0.1 to 1 | – | CN(C)[C@H]1CCN(c2cnc3nc(-c4cc5cn(C)nc5c(F)c4O)cc(Cl)c3c2)C1 [Compound 221]
23 | < 0.1 | 0.1 to 1 | 0.1 to 1 | 1 to 10 | – | C[C@H]1CN(c2cnc3nc(-c4cc5cn(C)nc5cc4O)cc(Cl)c3c2)C[C@H](C)N1 [Compound 242]
24 | 0.1 to 1 | 0.1 to 1 | 1 to 10 | 1 to 10 | – | C[C@@H]1CN(c2cnc3nc(-c4cc5cn(C)nc5cc4O)cc(Cl)c3c2)C[C@@H](C)N1 [Compound 243, 5-{4-chloro-6-[(3R,5R)-3,5-dimethylpiperazin-1-yl]-1,8-naphthyridin-2-yl}-2-methylindazol-6-ol hydrochloride]

Row | Structure (SMILES) | IC50 [1] [µM] | IC50 [2] [µM] | IC50 [3] [µM] | IC50 ([4]; Homo sapiens) [µM] | IC50 [4] [µM]
25 | Cc1cn2nc(-c3ccc4cc(N(C)C5CCNCC5)cnc4n3)cc(C)c2n1 [Compound 205, 7-{2,8-dimethylimidazo[1,2-b]pyridazin-6-yl}-N-methyl-N-(piperidin-4-yl)-1,8-naphthyridin-3-amine] | 1 to 10 | > 10 | > 10 | > 10 | –
